Earlier results as cited in patent publication US20120183610A1, “GLUCOCORTICOID THERAPY” (priority 2009, published 2012).

Columns and labels:
[1] = dose equivalent to 20 mg hydrocortisone
[2] = after 2.3 to 6.8 months; mean dose reduced to 20.8±1.0 mg; p<0.01
[3] = 30 to 15 mg daily; after 3 months

CC(=O)OCC(=O)[C@@]1(O)CC[C@H]2[C@@H]3CCC4=CC(=O)CC[C@]4(C)[C@H]3C(=O)C[C@@]21C [Cortisone acetate]
Equivalent amount [1]: 25 mg

C[C@@H]1C[C@H]2[C@@H]3C[C@H](F)C4=CC(=O)C=C[C@]4(C)[C@H]3[C@@H](O)C[C@]2(C)[C@@]1(O)C(=O)CO [Paramethasone]
Equivalent amount [1]: 2 mg

C[C@]12CCC(=O)C=C1CC[C@@H]1[C@@H]2[C@@H](O)C[C@@]2(C)[C@H]1CC[C@]2(O)C(=O)CO [Hydrocortisone]
Equivalent amount [1]: 20 mg
serum concentration of osteocalcin at re-evaluation [2]: 0.0199 µg/mL
body weight and cardiovascular functional variables after dose reduction [3]: no change in body weight or any of the cardiovascular functional variables studied
BMI before dose reduction (11 patients with secondary adrenal insufficiency): 31.5±1.1 kg/m^2
fasting glucose and insulin levels after dose reduction (dose reduced on average by 50%): unaffected
body weight reduction, on average (dose reduced on average by 50%, 11 patients, follow-up 6-12 months): 7.1 kg
BMI after dose reduction (dose reduced on average by 50%, follow-up 6-12 months): 29.4±1.0 kg/m^2

C[C@]12C=CC(=O)C=C1CC[C@H]1[C@@H]3C[C@@H](O)[C@](O)(C(=O)CO)[C@@]3(C)C[C@H](O)[C@@]12F [Triamcinolone]
Equivalent amount [1]: 4 mg

C[C@]12C=CC(=O)C=C1CC[C@@H]1[C@@H]2[C@@H](O)C[C@@]2(C)[C@H]1CC[C@]2(O)C(=O)CO [Prednisolone]
Equivalent amount [1]: 5 mg
